The source of these data is patent US20260008784A1 (VASTHERA CO., LTD., priority 2022, published 2026).

pEC50, pIC50: −log10 of the molar value.

Data set [1] has as its system yeast thioredoxin (Trx)/yeast Trx reductase (TR). Nature of the data set: Peroxidase activity assay (H2O2 reduction, NADPH oxidation). Particulars: 50 μM test compound, 3 μM yeast Trx, 1.5 μM yeast TR, 250 μM NADPH, 1.2 mM H2O2, 30° C.; NADPH oxidized per minute. It counts as biochemical. The procedure: Hydrogen peroxide (H2O2)-reducing peroxidase activity of compounds in present invention was performed as follows. Peroxyredoxin activity was measured in reaction mixture (200 μL volume) containing 50 mM HEPES buffer (pH 7.0), 1 mM EDTA, 250 μM NADPH, 3 μM yeast thioredoxin (Trx), 1.5 μM yeast Trx reductase (TR), 50 μM test compound, and 1.2 mM H2O2.
Reaction was initiated by adding H2O2 and the decrease in absorbance at 340 nm was measured using Agilent UV8453 spectrophotometry (Hewlett Packard, USA) at 30° C. for 12 min. Initial reaction rate is the amount of NADPH oxidized per minute calculated from slope of the linear part of curve.
The H2O2-reducing peroxidase activity of the test compounds in present invention was measured in a reaction mixture containing thioredoxin (Trx)/thioredoxin reductase (TR), respectively.

Data set [2] in a line: Measurement of redox potential (DTT redox buffers, HPLC). It counts as physicochemical. To be noted: DTT(Red)/DTT(Ox) redox buffers, 3 h, 30° C., 50% reduction of test compound. The procedure:
A test compound (10 mM) was diluted 20-fold with each redox buffer solution and incubated for 3 h in a 30° C. water bath. Then, compounds were analyzed by HPLC. The area of peaks corresponding to the oxidized and reduced forms of test compound based on specific retention time was calculated and plotted as percent of total peak area against the Nernst equation value (mV) at x-axis. The Nernst equation value corresponding to 50% reduction of test compound was set as the midpoint redox potential value for test compound.
The redox potential values of the test compounds were analyzed based on the potential values established in redox buffer solutions where reduced and oxidized DTT are mixed at various ratios.

The subject of data set [3] is Tyr 857 phosphorylation of PDGF receptor-β (PDGFRβ) in HASMC. Nature of the data set: Immunoblot of PDGF-mediated signaling in PrxII knock-down HASMC. It counts as cell-based, human. To be noted: HASMC depleted of PrxII expression, FIG. 2. The procedure: (§1) Cells were quickly washed in ice-cold phosphate-buffered saline (PBS) and lysed in extraction buffer containing 20 mM Hepes (pH 7.0), 1% Triton X-100, 150 mM NaCl, 10% glycerol, 1 mM EDTA, 2 mM EGTA, and 1 mM DTT, 5 mM Na3VO4, 5 mM NaF, 1 mM AEBSF, aprotinin (5 μg/mL), and leupeptin (5 μg/mL). After cen-trifugation at 12,000×g, the clarified cell extracts were used for immunoblotting. For re-blotting, the immunoblots were retrieved in a solution of 67 mM Tris (pH 6.7), 2% SDS, and 100 mM 2-mercaptoethanol at 60° C. for 30 min to remove antibodies and rinsed three times with a Tris-buffered saline (TBS) solution containing 1% Triton X-100. The retrieved membranes were subjected to new immunoblotting.
In human aortic smooth muscle cell (HASMC) and human pulmonary artery smooth muscle cell (PASMC) in which PrxII was knocked out by transfecting the PrxII siRNA, the ability of test compounds to replace the cellular function of PrxII was evaluated. That is, the efficacy of the new compounds was verified in terms of signaling pathways induced by PDGF that regulates the growth and migration of vascular smooth muscle cells in the aorta and pulmonary artery. Activation of PDGF-induced signaling pathway was analyzed by an immunoblot method using an antibody that specifically recognizes phosphorylation of Tyr 857, which is a major phosphorylation site on PDGF receptor (PDGFRβ).
(In general: In western blotting, separated proteins are transferred to a membrane and probed.)

Data set [4] relates to Tyr 1175 phosphorylation of VEGF receptor-2 (VEGFR2) in HAEC. Nature of the data set: Immunoblot of VEGF-mediated signaling in PrxII knock-down HAEC. To be noted: HAECs depleted of PrxII expression, FIG. 5. It counts as cell-based, human. The protocol: as §1
In human aortic endothelial cell (HAEC) and human pulmonary artery endothelial cell (PAEC) in which PrxII was knocked out by transfecting the PrxII siRNA, the ability of test compounds to replace the cellular function of PrxII was evaluated. That is, the efficacy of the new compounds was verified in terms of signaling pathways induced by VEGF that regulates the growth and migration of vascular endothelial cells in the aorta and pulmonary artery. Activation of VEGF-induced signaling pathway was analyzed by an immunoblot method using an antibody that specifically recognizes phosphorylation of Tyr 1175, which is a major phosphorylation site on VEGF receptor-2 (VEGFR2).

The subject of data set [5] is human pulmonary artery smooth muscle cell (PASMC). Nature of the data set: PDGF-induced proliferation assay, PASMC (PrxII siRNA). Particulars: for Degree of PASMC proliferation: PDGF-BB 25 ng/mL, percent of untreated control. It counts as cell-based. The procedure: (§2) HASMCs and PASMCs were transfected with a PrxII-specific siRNA using RNAi MAX transfection reagent according to manufacturer's protocol. After 24 hours, transfected cells (3,000 cells/well) were seeded in a 96-well culture plate. At 12 h after seeding, cells were serum-starved for additional 18 h in SmBM basal medium containing 0.5% FBS. Test compounds were serially diluted with the same basal medium containing 0.5% FBS, added to the cells ([…]), and incubated for 2 h. After treatment, cells were placed in fresh SmBM medium containing 0.5% FBS and PDGF-BB (25 ng/mL) for growth factor stimulation and further cultured for 24 h.
(§3) The degree of cell proliferation was measured using the Cell Titer-GLO kit ([…]). Data are the percent of luminescence intensity averaged from three replicate wells versus that of untreated control group.
(§4) In human aortic smooth muscle cell (HASMC) and human pulmonary artery smooth muscle cell (PASMC) in which PrxII was knocked out by transfecting the PrxII siRNA, the ability of test compounds to inhibit the PDGF-induced proliferation of vascular smooth muscle cells was evaluated. In Table 6, the degree of proliferation in the compound-treated groups is expressed as percent of the degree of proliferation in untreated control group. The concentrations of test compounds corresponding to 50% growth inhibition (IC50) is also listed.

In data set [6] the test system is human aortic smooth muscle cell (HASMC). Nature of the data set: PDGF-induced proliferation assay, HASMC (PrxII siRNA). It counts as cell-based. Particulars: for Degree of HASMC proliferation: PDGF-BB 25 ng/mL, percent of untreated control. The procedure:
as §2, §3, §4

Data set [7] deals with human aortic endothelial cell (HAEC). Nature of the data set: VEGF-induced proliferation assay, HAEC (PrxII siRNA). It counts as cell-based. Particulars: for Degree of HAEC proliferation: VEGF-A 25 ng/mL, percent of untreated control. The protocol:
as §2, with “HAECs” for “HASMCs”, “PAECs” for “PASMCs”, “EBM” for “SmBM”, “VEGF-A” for “PDGF-BB”
as §3
In human aortic endothelial cell (HAEC) and human pulmonary artery endothelial cell (PAEC) in which PrxII was knocked out by transfecting the PrxII siRNA, the ability of test compounds to augment the VEGF-induced proliferation of vascular endothelial cells was evaluated. In Table 7, the degree of proliferation in the compound-treated groups is expressed as percent of the degree of proliferation in untreated control group. The effective concentrations of test compounds increasing cell proliferation by 50% (EC50) is also listed.

Experimental for in vitro: Cytotoxicity tests were performed against vascular endothelial cells, vascular smooth muscle cells and hepatocytes. After treatment with ascending concentrations of each compound, the concentration of test compound corresponding to 50% cell viability (CC50) was measured.

In the case of “6-benzyl-1,4,8-trimethyl-2,3-dithia-6,8-diazabicyclo[3.2.2]nonane-7,9-dione [Compound 25]”, the “Peroxidase activity for H2O2 reduction” value in data set [1] amounted to 4.51 nmol/min.
Take `COc1cc(CN2C(=O)C3(C)SSCC2C(=O)N3C)cc(OC)c1OC` (centres unmarked) [Compound 3, 1,8-dimethyl-6-(3,4,5-trimethoxybenzyl)-2,3-dithia-6,8-diazabicyclo[3.2.2]nonane-7,9-dione]: the CC50 in “in vitro” is 82600 nM. Moreover, in data set [1], the “Peroxidase activity for H2O2 reduction” value came to 4.11 nmol/min. In addition, the “Midpoint redox potential (E m)” value in data set [2] is reported as −296 mV.
In turn, `CN1C(=O)C2CSSC1(C)C(=O)N2Cc1ccc(F)cc1F` (centres unmarked) [Compound 4] registered a CC50 in the data set “in vitro” of 98000 nM. Also, the “Peroxidase activity for H2O2 reduction” value in data set [1] was determined as 3.82 nmol/min. In data set [2], the “Midpoint redox potential (E m)” value is given as −292.74 mV.
On to `O=C1C2CSSC3(COCCN13)C(=O)N2Cc1ccncc1` (centres unmarked) [Compound 9, 12-(pyridin-4-ylmethyl)tetrahydro-5H,10H-4,10a-(epiminomethano)[1,4]oxazino[3,4-c][1,2,4]dithiazepin-5,11-dione], for which the “Peroxidase activity for H2O2 reduction” value in data set [1] was 5.19 nmol/min.
In general, pIC50 refers to −log10 of the IC50, conventionally taken in molar units. Broadly, the pEC50 is −log10 of the EC50, conventionally taken in molar units. Low values mean a large EC50, high ones a small EC50. `CCN1C(=O)C23COCCN2C(=O)C1CSS3` (centres unmarked) [Compound 10, 12-ethyltetrahydro-5H,10H-4,10a-(epiminomethano)[1,4]oxazino[3,4-c][1,2,4]dithiaze pine-5,11-dione]: in data set [1], the “Peroxidase activity for H2O2 reduction” value was 5.06 nmol/min. In addition, the “Effect on phosphorylation of Tyr 857 on PDGFR” value in data set [3] was “strongly abolish the phosphorylation”. Also, the “Effect on phosphorylation of Tyr 1175 on VEGFR2” value in data set [4] was “strongly abolish the phosphorylation”. The “Degree of PASMC proliferation” value in data set [5] (2.5 nM) was determined as 90.5%; in data set [5] (5 nM), 54.1%; in data set [5] (10 nM) it was 44.1%; in data set [5] (25 nM), 21.9%; in data set [5] (50 nM) it was 17.5%; in data set [5] (100 nM) it was 7.0%. Also, the negative logarithm of the IC50 (pIC50) is 8.08 in data set [5] (Homo sapiens, PASMC, 50% growth inhibition, PDGF-stimulated) and 8.26 in data set [6] (Homo sapiens, HASMC, 50% growth inhibition, PDGF-stimulated). In addition, the “Midpoint redox potential (E m)” value in data set [2] is −268.53 mV. Also, the “Degree of HASMC proliferation” value in data set [6] (2.5 nM) is on record as 75.5%; in data set [6] (5 nM), 53.8%; in data set [6] (10 nM), 31.1%; in data set [6] (25 nM), 4.6%. The “Degree of HAEC proliferation” value in data set [7] (2.5 nM) came out at 111.6%; in data set [7] (5 nM), 122.8%; in data set [7] (10 nM), 127.6%; in data set [7] (25 nM) it was 140.7%; in data set [7] (50 nM), 175.1%; in data set [7] (100 nM) it was 159.0%. The same molecule showed a pEC50 in data set [7] (Homo sapiens, Endothelial cell, effective concentration increasing cell proliferation by 50%, VEGF-stimulated) of 7.71.
In the case of `O=C1C2CSSC3(CCCN13)C(=O)N2Cc1ccncc1` (centres unmarked) [Compound 11, 11-(pyridin-4-ylmethyl)tetrahydro-5H,7H-4,9a-(epiminomethano)pyrrolo[2,1-c][1,2,4]dithiazepine-5,10-dione], the “Peroxidase activity for H2O2 reduction” value in data set [1] is 4.57 nmol/min.
The same measure, in the same setting: the figure for `CN1C(=O)C2(C)SSCC1C(=O)N2Cc1ncccn1` (centres unmarked) [Compound 16, 1,6-dimethyl-8-(pyrimidin-2-ylmethyl)-2,3-dithia-6,8-diazabicyclo[3.2.2]nonane-7,9-d ione] is 4.93 nmol/min; for `CN1C(=O)C2(C)SSCC1C(=O)N2Cc1cn(C)cn1` (centres unmarked) [Compound 17, 1,6-dimethyl-8-((1-methyl-1H-imidazol-4-yl)methyl)-2,3-dithia-6,8-diazabicyclo[3.2.2]nonane-7,9-dione] it is 4.80 nmol/min; for `COC(=O)c1ccc(CN2C(=O)C3CSSC2(C)C(=O)N3C)cc1` (centres unmarked) [Compound 18, Methyl 4-((1,6-dimethyl-7,9-dioxo-2,3-dithia-6,8-diazabicyclo[3.2.2]nonan-8-yl)methyl)benzo ate] it is 4.91 nmol/min.
As to `CN1CCN2C(=O)C3CSSC2(C1)C(=O)N3Cc1ccncc1` (centres unmarked) [Compound 22], the “Peroxidase activity for H2O2 reduction” value in data set [1] came to 7.97 nmol/min. For the same molecule, the “Effect on phosphorylation of Tyr 857 on PDGFR” value in data set [3] is “strongly abolish the phosphorylation”.
Regarding `CC1SSC2(C)C(=O)N(Cc3ccccc3)C1C(=O)N2C` (centres unmarked) [Compound 24, 6-benzyl-1,4,8-trimethyl-2,3-dithia-6,8-diazabicyclo[3.2.2]nonane-7,9-dione], the “Peroxidase activity for H2O2 reduction” value in data set [1] is 4.26 nmol/min.
